Measurements: US7618643B2, “Growth factor delivery system for the healing of wounds and the prevention of inflammation and disease” (DirectContact LLC, priority 2002, dated 2009)

Tests used:
[1] = tested on: New Zealand white rabbits, eyes abraded with a needle; assay: rabbit model, eyes abraded with a needle, medicated contact lens in right eye; format: in vivo
Protocol: New Zealand white rabbits were anesthetized, and then both eyes were abraded with a needle. A control contact lens was placed in the left eye, and a medicated contact lens was placed in the right eye of each rabbit for up to 4 hours prior to euthanasia. Control contact lenses (etafilcon A, an ionic lens with 58% water content) were washed with phosphate-buffered saline (PBS) prior to insertion. […] Rabbits were visually scored on a 0-4 scale (0 being the best and 4 being the worst) for corneal edema (which is a measure of wound healing), inflammation, and exudate production.

[2] = tested on: rabbit corneal epithelial cells; assay: in vitro wound closure, epithelial cell sheets contacted with contact lenses; format: cell-based; details: for healing: lens soaked in 10 ng/μL EGF
Protocol: (§1) Ocular cells were placed into a sterile plastic dish. This dish contained a 5-mm disk. The purpose of the disk was to prevent cells from growing in the covered area. When the disk was removed, a 5-mm “wound” or “hole” was present.
(§2) Contact lenses were then added to these cell sheets with the wounds. The lenses were left in contact with the cell sheets for a minimum of 30 minutes. Minimal medium was used to maintain the cell cultures. Cells were incubated at 35° C.±2° C. in 5% CO2. […] The contact lenses used were polymacon B, vifilcon A, and lidofilcon A hydrogel polymers.
(§3) The cell sheets were then viewed over time, and the diameter of the hole was measured.
(§4) The results are expressed in terms of closure of the in vitro wound over time.
Epithelial Cells and Tissue. Epithelial (rabbit corneal epithelial cells) cells were seeded on a dish and contacted with control and EGF-containing contact lenses. […] At 72 hours, there was a 43% difference in the closure rate between the EGF-treated epithelial tissue and the controls. The hydrogel material that was used was vifilcon A, an ionic polymer with a water content of 55%.
(§5) Closure rates were calculated by direct measurement of the diameter of the wound. Measurements were taken daily.

[3] = tested on: bovine corneal endothelial cells; assay: in vitro wound closure, endothelial cell sheets contacted with contact lenses; format: cell-based
Protocol: as §1, §2, §3, §4, §5
Endothelial Cells and Tissue.

[4] = tested on: recurring epithelial defect; assay: human testing of medicated lens; format: in vivo; details: polymacon B lens soaked in 400 ppb EGF for 24 hours; one human patient; one administration
Protocol: This lens was placed in a human patient suffering from a recurring epithelial defect that was not responsive to traditional medical treatments. […] Desirably treatment lasts for at least one hour. This type of injury is normally treated by the repeated introduction of eye drops, sometimes as often as every 4-5 minutes. A contact lens of the present invention, however, was able to produce a positive result with only one administration.

[5] = vifilcon A lens soaked in 10 ng/μL EGF, 48 hours
[6] = vifilcon A lens soaked in 10 ng/μL EGF, 72 hours
[7] = polymacon B lens soaked in 10 ng/μL EGF, 72 hours
[8] = contact lens, 400 ppb HGH soak, right eye

epidermal growth factor [EGF]
wound healing compared to control eyes ([1]; etafilcon A lenses soaked in 400 ppb EGF, first two hours after treatment): healed wounds at an accelerated rate | toxicity in rabbits ([1]; etafilcon A lenses soaked in 400 ppb, 4 ppm or 10 ppm EGF): No toxicity was observed | healing ([2]; 48 hours): 14% | healing ([2]; 72 hours): 25% | closure rate difference between controls and EGF treated ([2]; vifilcon A lens soaked in 5.0 ng/μL EGF, 48 hours): 21% | difference in the closure rate ([2]; vifilcon A lens soaked in 5.0 ng/μL EGF, 72 hours): 21% | difference in the closure rate between EGF-treated and non-EGF treated cells [2, 5]: 25% | difference in the closure rate between EGF-treated and controls [2, 6]: 43% | difference in the healing rates compared to a wound not contacted with any lens ([2]; vifilcon A lens with EGF, 48 hours): 31% | increase in the healing rate (wound closure rate) compared to controls ([3]; lidofilcon A lens soaked in 10 ng/μL EGF, 48 hours): 54% | difference in healing rate compared to controls ([3]; lidofilcon A lens soaked in 10 ng/μL EGF, 72 hours): 44% | difference in closure between treated and untreated groups [3, 7]: 62% | wound closed [3, 7]: 80% | difference in closure rate between EGF treated group and controls ([3]; vifilcon A lens soaked in 5 ng/μL EGF, 48 hours): 31% | tissue healed ([3]; vifilcon A lens soaked in 5 ng/μL EGF, 72 hours): 53% | difference in healing rates compared to a control [3, 5]: 73% | tissue healed [3, 6]: completely healed | clinical efficacy (wound healing) [4]: Clinical efficacy (i.e., wound healing) was observed

human growth hormone [HGH]
toxicity to the ocular tissue ([1]; contact lens, 400 ppb HGH soak): no toxicity was observed | inflammation compared to control eyes [1, 8]: reduction in inflammation | wound healing compared to control eyes [1, 8]: increased wound healing
